This is an account of results in US10955415B2, “CD247 as a biomarker for assessing the effect of chemotherapeutic and biological drugs” (YISSUM RESEARCH DEVELOPMENT COMPANY OF THE HEBREW …, priority 2011, dated 2021).

The subject of one test is colorectal cancer (CRC). The test is described as follows: Survival, colon structure and tumor loads of CRC-bearing mice. Format: in vivo.
A further test deals with TNFα, IL-6, IFNγ. The test is described as follows: Real Time PCR of inflammatory cytokines in MDSCs and total splenocytes. The following applies: relative to inflamed untreated; for mRNA levels of TNFα and IL-6: spleen-derived MDSCs and total splenocytes. Type of test: in vivo, mice. In general terms: Real-time PCR tracks product formation cycle by cycle.
The subject of another test is CD247 (ζ chain). The arrangement: species or system mice. To be noted: mouse, in vivo.
For test [1], the system named is CD247. The test is described as follows: CD247 expression in T cells infiltrating the colon, CRC mouse model. To be noted: CRC-bearing mice. Format: in vivo.
In test [2] the test system is MDSCs. Briefly: MDSC infiltration in colon lamina propria and epithel, CRC mouse model. Format: in vivo. The following applies: CRC-bearing mice, tumor tissue.
The subject of a further test is CD247 (ζ-chain). The test is described as follows: CD247 expression in spleen and PBLs, CRC mouse model. Format: in vivo. To be noted: CRC (AOM/DSS) mice, vs untreated CRC-bearing mice. An excerpt:
Means and SEM are shown. *, P<0.05; **, P<0.01. […] (normal).

Test [3] has as its system CD247. The test is described as follows: Adoptive transfer of CFSE-labeled normal splenocytes, CD247 in host and donor cells. Type of test: in vivo, mice. To be noted: BCG-inflamed hosts, 24 h after transfer, spleen. Here is the method: CFSE-labeled splenocytes from normal mice (donor cells) were adoptively transferred into mice untreated, inflamed, and inflamed treated i.p. with irinotecan (hosts). After 24 h, splenocytes from each group were harvested and stained for CD247 expression (MFI) in CD3+ T cells within the CFSE+ (donor-cell) or CFSE− (host-cell) population. Data from three independent experiments (n=4) is presented. Statistical analyses using t test indicated significant differences at 95% Cl. Means and SEM are shown. * P<0.05. Abbreviations: Ho. (host), Do. (donor), cont. (control).
CFSE-labeled splenocytes from normal mice (donor cells) were adoptively transferred into non-inflamed, inflamed, and inflamed mice treated i.p. with 5-FU (hosts). After 24 h, splenocytes from each group were harvested and stained for CD247 expression (MFI) in CD3+ T cells within the CFSE+ (donor-cell) or CFSE− (host-cell) population. Data from three independent experiments (n=4) is presented. Statistical analyses using t test indicated significant differences at 95% Cl. Means and SEM are shown. *, P<0.05. Abbreviations: Ho. (host), Do. (donor), cont. (control).
Next, the effect of etanercept treatment on the host's immune status as well as on adoptively transferred T- and NK-cells was examined. It should be noted that adoptively transferred T- and NK-cells being a treatment that is frequently used today in different immunotherapeutic regiments for various pathologies. To this end, CFSE-labeled normal splenocytes were administered, i.v., 1 day before cell harvest, at the peak of the inflammatory response (mimicking cell mediated therapies).

The next test concerns CD3ε chain. The arrangement: species or system mice. The following applies: mouse, in vivo.
The subject of test [4] is MDSCs (Gr1+CD11b+). The test is described as follows: MDSC accumulation in spleen and PBLs, AOM/DSS colorectal cancer (CRC) mouse model. Type of test: in vivo. To be noted: CRC (AOM/DSS) mice, i.p., vs untreated CRC group.
Excerpt: The mouse model for CRC was used as described in Experimental procedures. […] Mice were sacrificed at week +11, three weeks after the second DSS treatment. […] Graphs represent the percent of MDSCs presented within the spleen (FIG. 21A) and PBLs (FIG. 21C). Data from three independent experiments (n=3) is presented. […] Means and SEM are shown. *, P<0.05; **, P<0.01; ***, P<0.001.
The mouse model for CRC was established by two repeated injections of azoxymethane (AOM) (Sigma) in intervals of two weeks followed by two weekly administrations of DSS (Sigma) that was added to drinking water every two weeks for duration of about seven days. […] Mice were sacrificed at week +11, three weeks after the second DSS treatment.
Test [5] relates to CD247 in NK (NCR1+) cells. Briefly: CD247 expression in gated NK (NCR1+) cells from spleen. The following applies: spleen of BCG-inflamed mice, monotherapy. Format: in vivo. Here is the method:
FIG. 2E. CD247 expression was measured gating on NK (NCR1+) cells derived from the spleens of each group. Data from three independent experiments is presented (n=4). Statistical analyses using t test indicated significant differences at 95% Cl. Means and SEM are shown. *, P<0.05.
(§1) Isolated splenocytes and peripheral blood leukocytes (PBLs) were treated with erythrocyte lysis buffer and washed in PBS. Cells were pre-coated with anti-CD16/CD32 (Biolegend) for FcR blockage. For surface staining, cells were incubated for 30 min at 4° C. with FITC-labeled anti-Gr1, anti-CD11c, and anti-CD4; PE-labeled anti F4/80, anti-CD3ε, anti-CD45R/B220, and anti-mNKp46; and biotinylated anti-CD11b and anti-CD8 that were detected with streptavidin-Cy5 (Biolegend and eBioscience). Intracellular staining of CD247 cells was performed by subjecting the cells to fixation with paraformaldehyde (1%) for 20 min at 4° C., followed by washing and permeabilization for 10 min with saponin detergent (0.1%) at room temperature (RT). Cells were then washed and incubated with FITC-labeled monoclonal anti-CD247 (H146) (Abcam), or biotinylated monoclonal anti-CD247 (H146), which were subsequently detected with streptavidin-Cy5. FoxP3 staining was performed according to the manufacturer's instructions. Samples were analyzed using FACSCalibur with Cell Quest software (BD).

Test [6] has as its system MDSCs (Gr1+CD11b+). The arrangement: species or system mice. The following applies: mouse, in vivo.
A further test relates to CD4+Foxp3+ Treg cells. The arrangement: species or system mice. To be noted: mouse, in vivo.
Test [7] relates to MDSCs. Type of test: in vivo, mice. To be noted: mouse, in vivo.
Test [8] has as its system CD11b+CD11c+ and CD11b+F4/80+ cells. The test is described as follows: Myeloid differentiation state in spleen (DCs, macrophages, APC maturation). Format: in vivo. To be noted: BCG-inflamed mice.
Excerpt: FIG. 18A-18E. Splenocytes and PBLs from mice untreated (naïve), inflamed, or inflamed and treated with 5-FU or CPT-11 were fixed, permeabilized, and double stained for the expression of CD247 (ζ-chain) (FIGS. 18A, 18B) and CD3ε-chain (FIGS. 18D, 18E), as shown by mean fluorescence intensity (MFI), measured in gated CD3^+ cells. FIG. 18C: Splenocytes from mice, naïve, inflamed and inflamed treated with 5-FU or CPT-11, were labeled with CFSE and activated with anti-CD3 and anti-CD28 antibodies or left non-activated. The proliferative response was assessed by monitoring cell divisions of gated CFSE-labeled Thy1.2+ (CD90+) T-cells. The percent of proliferating cells was calculated and compared to steady state levels of non-activated cells per each group. Data from three independent experiments is presented (n=3). Statistical analyses using t test indicated significant differences at 95%. Means and SEM are shown. *, P<0.05; **, P<0.01. FIG. 18F-18I. For the detection of myeloid differentiation state, splenocytes from each group were stained for (18F) DC11b^+CD11c^+ cells (representing DCs), (18G) DC11b^+F4/80^+ cells (representing monocytes), (18H) CD11c^+MHCII^+CD80^+ cells (representing fully differentiated […] as antigen presenting cells) and (18I) F4/80^+MHCII^+CD80^+ cells (representing fully differentiated […] as antigen presenting cells). Data from three independent experiments (n=4) is presented. Statistical analyses using t test indicated significant differences at 95%. Means and SEM are shown. *, P<0.05; **, P<0.01; ***, P<0.001. Abbreviations: Nor. (normal), Rel. (relative), Inf. (inflamed), ce. Pro. (cell proliferation)
as §1

Entries after “also recorded” stand apart in the source; their conditions may differ.

Turning to `O=c1[nH]cc(F)c(=O)[nH]1` [5-FU, 5-Fluorouracil], in the test on colorectal cancer (CRC), the “survival of CRC mice (Kaplan-Meyer)” value is reported as “increased survival”. In the test on colorectal cancer (CRC) (macroscopic and microscopic pathology), the “curable effects on colon structure and tumor loads” value is recorded as “observed”. Moreover, the “mRNA levels of TNFα and IL-6” value in the test on TNFα, IL-6, IFNγ is “no significant changes”. Moreover, in the test with CD247 (ζ chain), the “CD247 expression in T cells, PBLs” value is reported as “significant recovery” and the “CD247 expression in T cells, spleen” value was “recovered significantly; also recorded: significant recovery”. Moreover, the “CD247 expression levels in T cells infiltrating the colon” value in the test on CD247 [1] is “elevated”. In addition, the “MDSCs infiltration in lamina propria and colon epithelial tissue” value in the test with MDSCs [2] is recorded as “significantly reduced”. The “CD247 expression levels in spleen and blood” value in the test on CD247 (ζ-chain) is reported as “significantly recovered”. Besides, the “CD247 expression in host and adoptively transferred donor T cells” value in the test on CD247 [3] is listed as “clear significant increase”. Further, the CD3ε expression levels result with CD3ε chain is “rather constant; also recorded: not down regulated”. Also, in the test on MDSCs (Gr1+CD11b+) [4], the “MDSC percentage in PBLs” value is reported as “significant decrease” and the “MDSC percentage in spleen” value is reported as “significant decrease”. The “CD247 expression in NK (NCR1+) cells” value in test [5] is recorded as “recovery from immunosuppression; also recorded: almost completely recovered”. In the test with MDSCs (Gr1+CD11b+) [6], the “MDSC levels in peripheral blood (PBLs)” value is listed as “significant decline; also recorded: decrease; also recorded: reduced” and the “MDSC levels in the spleen” value was “significant decline; also recorded: decrease; also recorded: reduced”. Also, the “levels of Treg cells (CD4+Foxp3+) in spleen” value in the test on CD4+Foxp3+ Treg cells is given as “remained unchanged”. Further, in the test on MDSCs [7], the “NO production by MDSCs” value is reported as “decreased”, the “ROS production by MDSCs” value is listed as “decreased” and the “reduction of hROS of MDSCs” value is listed as “better results”. In addition, in [8], the “differentiated myeloid cells in spleen (CD11b+CD11c+ DCs, CD11b+F4/80+ macrophages)” value is “significant turning towards differentiated myeloid population”; the “maturation of antigen presenting cells (CD80 and MHCII expression)” value is “enhanced the maturation”.
Take `CCc1c2c(nc3ccc(OC(=O)N4CCC(N5CCCCC5)CC4)cc13)-c1cc3c(c(=O)n1C2)COC(=O)[C@]3(O)CC` [Irinotecan]: in the test on colorectal cancer (CRC), the “survival of CRC mice (Kaplan-Meyer)” value was “reduced survival rate”. Further, in the test on TNFα, IL-6, IFNγ (MDSCs and total spleen-population), the “mRNA level of IFNγ” value is reported as “decreased”. Also, the “mRNA levels of TNFα and IL-6” value in the test on TNFα, IL-6, IFNγ is “no significant changes”. For the same molecule, in the test on CD247 (ζ chain), the “CD247 expression in T cells, PBLs” value was “further significantly decreased; also recorded: tendency of decreased expression” and the “CD247 expression in T cells, spleen” value is listed as “further significantly decreased; also recorded: strong down-regulation”. The “CD247 expression levels in T cells infiltrating the colon” value in the test on CD247 [1] is listed as “Reduced levels”. Further, the “MDSCs infiltration in lamina propria and colon epithelial tissue” value in the test with MDSCs [2] is recorded as “significantly increased”. Also, in the test with CD247 (ζ-chain), the “CD247 expression levels in spleen and blood” value is “low as in the case of CRC-bearing, non-treated mice”. In the test on CD247 [3], the “CD247 expression in host and adoptively transferred donor T cells” value is “significant further decrease”. Besides, in the test on CD3ε chain, the CD3ε expression levels entry is “remained unchanged; also recorded: not down regulated”. For the same molecule, in the test with MDSCs (Gr1+CD11b+) [4], the “MDSC percentage in PBLs” value is reported as “no changes” and the “MDSC percentage in spleen” value is “significantly increased”. Further, in [5] (listed as CPT11), the “CD247 expression in NK (NCR1+) cells” value is “low CD247 expression”. In addition, the “CD247 expression in NK (NCR1+) cells” value in [5] (listed as CPT-11) was “remained down-regulated with no further decrease”. Also, in the test on MDSCs (Gr1+CD11b+) [6], the “MDSC levels in peripheral blood (PBLs)” value is listed as “remained high; also recorded: no changes” and the “MDSC levels in the spleen” value was “significantly enhanced; also recorded: significantly increased”. In the test with CD4+Foxp3+ Treg cells, the “levels of Treg cells (CD4+Foxp3+) in spleen” value was “remained unchanged”. Further, in the test with MDSCs [7], the “NO production by MDSCs” value is given as “significant elevation; also recorded: did not result in any further changes” and the “ROS production by MDSCs” value was “significant elevation; also recorded: significantly increased”. Further, the “differentiated myeloid cells in spleen (CD11b+CD11c+ DCs, CD11b+F4/80+ macrophages)” value in test [8] is “blockage of the myeloid cell differentiation and maturation”.
